Data as given in paper PMC8792425 (Redox Biology, 2022).

Biological target: T1, citrate synthase (CS) (Homo sapiens, UniProt O75390)
T1 sequence (O75390 28-466): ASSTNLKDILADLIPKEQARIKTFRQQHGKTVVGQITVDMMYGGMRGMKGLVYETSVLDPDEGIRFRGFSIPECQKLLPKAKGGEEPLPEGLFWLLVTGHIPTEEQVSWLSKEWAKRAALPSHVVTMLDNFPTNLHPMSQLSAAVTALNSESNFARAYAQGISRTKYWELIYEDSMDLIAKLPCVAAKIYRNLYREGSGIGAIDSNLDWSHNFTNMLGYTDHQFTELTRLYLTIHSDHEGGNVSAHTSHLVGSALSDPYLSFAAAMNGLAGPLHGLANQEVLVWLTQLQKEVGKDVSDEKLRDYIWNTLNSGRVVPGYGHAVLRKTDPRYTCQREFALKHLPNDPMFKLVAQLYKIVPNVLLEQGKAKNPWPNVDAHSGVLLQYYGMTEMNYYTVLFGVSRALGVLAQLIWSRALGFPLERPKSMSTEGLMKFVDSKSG
Assay: DTNB-CoA absorbance at […] nm
Format: biochemical

Row | Compound | DTNB-CoA absorbance at 412 nm (with oxaloacetate and DTNB) | DTNB-CoA absorbance at 412 nm (with acetyl CoA and DTNB)
1 | CC(=O)SCCNC(=O)CCNC(=O)[C@H](O)C(C)(C)COP(=O)(O)OP(=O)(O)OC[C@H]1O[C@@H](n2cnc3c(N)ncnc32)[C@H](O)[C@@H]1OP(=O)(O)O [acetyl CoA] | oxaloacetate, acetyl CoA, and DTNB were incubated with protein lysates | –
2 | O=C(O)CC(=O)C(=O)O [oxaloacetate] | – | oxaloacetate, acetyl CoA, and DTNB were incubated with protein lysates
